Laboratory results taken from patent US12643887B2, “Heterocyclic derivatives with cardiomyocyte proliferation activity for treatment of heart diseases” (Tongji University, priority 2019, dated 2026).

molecular target: T1, human CIT (Homo sapiens, UniProt O14578); test: CIT enzyme assay (ADP-Glo); type: biochemical; details: ADP-Glo, ATP 5 μM; read-out: CIT IC50
T1 construct: Recombinant human CIT (1-499); GST (N); purchased SignalChem C52-11G; host or cells: Sf9 insect cells
Experimental: The ability of compounds to inhibit human CIT kinase activities was determined using a commercially available ADP-Glo™ Kinase Assay kit (Promega, Cat #V9102) according to the manufacturer's protocol.
Recombinant human CIT (1-499) (expressed in Sf9 insect cells with an N-terminal GST tag) was purchased from SignalChem (Cat #C52-11G). Recombinant full length human MBP (expressed in E. Coli cells with an N-terminal GST tag) was purchased from SignalChem (Cat #M42-54G). This assay, run in a 384-well plate format, is a generic method for measuring kinase activities using an ADP-Glo Kinase Assay Kit. The basic assay procedure involves two steps: (1) Enzymatic step: inhibitors are incubated with the kinase and then ATP (included in the ADP-Glo Kinase Assay Kit) and the MBP protein are added to start the enzymatic reaction; (2) Detection step: after the kinase reaction, first ADP-Glo™ Reagent is added to terminate the kinase reaction and deplete the remaining ATP. Second, the Kinase Detection Reagent is added to simultaneously convert ADP to ATP and allow the newly synthesized ATP to be measured using a luciferase/luciferin reaction. The light generated is measured using a luminometer.
Briefly, CIT (20 nM) in the enzymatic buffer solutions (40 mM Tris, pH 7.5, 20 mM MgCl2, 0.1 mg/ml BSA, 50 μM DTT) were mixed with various concentrations of inhibitors (dissolved in 100% DMSO). These solutions were incubated for 30 minutes at 25° C., and subsequently a mixture of substrate peptide and ATP was added with the final peptide and ATP concentrations at 0.05 mg/ml and 5 μM, respectively. The final reaction mixture of enzyme-substrate-ATP-compound was incubated for 90 minutes at 25° C.
Afterwards ADP-Glo™ Reagent was added and the mixture was incubated at 25° C. for 60 minutes. Then Kinase Detection Reagent was added, and the final mixture was incubated at 25° C. for 60 minutes. The luminescence signal of the final solution was measured on an Envision instrument (PerkinElmer). The percent (%) inhibition at each concentration of a compound is calculated relative to the luminescence signal in the Max and Min control wells contained within each assay plate. […] The concentrations and percent inhibition values for a test compound are plotted and the concentration of the compound required to achieve 50% inhibition (IC50) is determined with a four-parameter logistic dose response equation.

T1 sequence (O14578 1-499): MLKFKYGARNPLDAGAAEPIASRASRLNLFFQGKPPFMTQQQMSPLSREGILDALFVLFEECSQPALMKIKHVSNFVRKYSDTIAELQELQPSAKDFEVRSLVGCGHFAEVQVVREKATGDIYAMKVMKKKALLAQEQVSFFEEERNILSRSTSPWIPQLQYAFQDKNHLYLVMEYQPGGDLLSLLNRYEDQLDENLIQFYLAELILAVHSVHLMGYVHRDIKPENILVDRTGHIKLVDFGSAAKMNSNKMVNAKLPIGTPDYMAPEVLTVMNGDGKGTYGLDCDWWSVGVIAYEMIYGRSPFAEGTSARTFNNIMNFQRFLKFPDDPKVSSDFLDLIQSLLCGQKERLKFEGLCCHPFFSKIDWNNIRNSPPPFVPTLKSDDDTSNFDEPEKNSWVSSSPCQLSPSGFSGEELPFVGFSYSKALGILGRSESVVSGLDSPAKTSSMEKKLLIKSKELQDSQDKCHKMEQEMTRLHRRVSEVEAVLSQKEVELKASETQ

Row | SMILES | IC50 [nM]
1 | CN(C1=N/C(=C\c2ccc3c(c2)OCO3)C(=O)N1)c1ccccc1 [Example 1, (Z)-5-(benzo[d][1,3]dioxol-5-ylmethylene)-2-(methyl(phenyl)amino)-3,5-dihydro-4H-imidazol-4-one] | > 10000
2 | O=C1/C(=C/c2ccc3c(c2)OCO3)N=C(N(Cc2ccccc2)c2ccccc2)N1Cc1ccccc1 [Example 2, (Z)-5-(benzo[d][1,3]dioxol-5-ylmethylene)-3-benzyl-2-(benzyl(phenyl)amino)-3,5-dihydro-4H-imidazol-4-one] | > 10000
3 | O=C1NC(Nc2ccccc2)=N/C1=C\c1ccc2ncsc2c1 [Example 6, (Z)-5-(benzo[d]thiazol-6-ylmethylene)-2-(phenylamino)-3,5-dihydro-4H-imidazol-4-one] | 100 to 1000
4 | CN(C1=N/C(=C\c2ccc3ncsc3c2)C(=O)N1)c1ccccc1 [Example 7, (Z)-5-(benzo[d]thiazol-6-ylmethylene)-2-(methyl(phenyl)amino)-3,5-dihydro-4H-imidazol-4-one] | 100 to 1000
5 | CN(CC1CC1)C1=N/C(=C\c2ccc3c(c2)OCO3)C(=O)N1 [Example 11, (Z)-5-(benzo[d][1,3]dioxol-5-ylmethylene)-2-((cyclopropylmethyl)(methyl)amino)-3,5-dihydro-4H-imidazol-4-one] | > 10000
6 | O=C1NC(N(CCO)c2ccccc2)=N/C1=C\c1ccc2c(c1)OCO2 [Example 13, (Z)-5-(benzo[d][1,3]dioxol-5-ylmethylene)-2-((2-hydroxyethyl)(phenyl)amino)-3,5-dihydro-4H-imidazol-4-one] | > 10000
7 | COc1ccccc1N(C)C1=N/C(=C\c2ccc3c(c2)OCO3)C(=O)N1 [Example 21, (Z)-5-(benzo[d][1,3]dioxol-5-ylmethylene)-2-((2-methoxyphenyl)(methyl)amino)-3,5-dihydro-4H-imidazol-4-one] | > 10000
8 | O=C1NC(N(Cc2ccccc2)c2ccccc2)=N/C1=C\c1ccc2c(c1)OCO2 [Example 22, (Z)-5-(benzo[d][1,3]dioxol-5-ylmethylene)-2-(benzyl(phenyl)amino)-3,5-dihydro-4H-imidazol-4-one] | > 10000
9 | CN(Cc1ccccc1)C1=N/C(=C\c2ccc3c(c2)OCO3)C(=O)N1 [Example 23, (Z)-5-(benzo[d][1,3]dioxol-5-ylmethylene)-2-(benzyl(methyl)amino)-3,5-dihydro-4H-imidazol-4-one] | > 10000
10 | CN(C1=N/C(=C\c2ccc3c(c2)OCO3)C(=O)N1)c1ccc(N)cc1 [Example 37, (Z)-2-((4-aminophenyl)(methyl)amino)-5-(benzo[d][1,3]dioxol-5-ylmethylene)-3,5-dihydro-4H-imidazol-4-one] | > 10000
11 | COc1ccc(N(C)C2=N/C(=C\c3ccc4ncsc4c3)C(=O)N2)cc1 [Example 38, (Z)-5-(benzo[d]thiazol-6-ylmethylene)-2-((4-methoxyphenyl)(methyl)amino)-3,5-dihydro-4H-imidazol-4-one] | 1000 to 10000
12 | O=C1NC(Nc2ccc(Cl)cc2)=N/C1=C\c1ccc2ncsc2c1 [Example 40, (Z)-5-(benzo[d]thiazol-6-ylmethylene)-2-((4-chlorophenyl)amino)-3,5-dihydro-4H-imidazol-4-one] | 100 to 1000
13 | O=C1/C(=C/c2ccc3ncsc3c2)N=C(N(Cc2ccccc2)c2ccccc2)N1Cc1ccccc1 [Example 42, (Z)-5-(benzo[d]thiazol-6-ylmethylene)-3-benzyl-2-(benzyl(phenyl)amino)-3,5-dihydro-4H-imidazol-4-one] | > 10000
14 | CN(C1=N/C(=C\c2ccc3ncsc3c2)C(=O)N1)c1ccc(N)cc1 [Example 44, (Z)-2-((4-aminophenyl)(methyl)amino)-5-(benzo[d]thiazol-6-ylmethylene)-3,5-dihydro-4H-imidazol-4-one] | 100 to 1000
15 | CC(C)NC1=N/C(=C\c2ccc3ncsc3c2)C(=O)N1C [Example 45, (Z)-5-(benzo[d]thiazol-6-ylmethylene)-2-(isopropylamino)-3-methyl-3,5-dihydro-4H-imidazol-4-one] | 100 to 1000
16 | Cn1cnc2ccc(/C=C3\N=C(Nc4ccccc4)NC3=O)cc21 [Example 46, (Z)-5-((1-methyl-1H-benzo[d]imidazol-6-yl)methylene)-2-(phenylamino)-3,5-dihydro-4H-imidazol-4-one] | 100 to 1000
17 | O=C1NC(Nc2ccc3ncsc3c2)=N/C1=C\c1ccc2c(c1)OCO2 [Example 47, (Z)-5-(benzo[d][1,3]dioxol-5-ylmethylene)-2-(benzo[d]thiazol-6-ylamino)-3,5-dihydro-4H-imidazol-4-one] | > 10000
18 | O=C1NC(Nc2ccc3ncsc3c2)=N/C1=C\c1ccc2ncsc2c1 [Example 48, (Z)-2-(benzo[d]thiazol-6-ylamino)-5-(benzo[d]thiazol-6-ylmethylene)-3,5-dihydro-4H-imidazol-4-one] | 100 to 1000
19 | O=C1NC(Nc2ccccc2)=N/C1=C\c1ccc2occc2c1 [Example 52, (Z)-5-(benzofuran-5-ylmethylene)-2-(phenylamino)-3,5-dihydro-4H-imidazol-4-one] | > 10000
20 | O=C1NC(Nc2ccccc2)=N/C1=C\c1ccc2ncccc2c1 [Example 53, (Z)-2-(phenylamino)-5-(quinolin-6-ylmethylene)-3,5-dihydro-4H-imidazol-4-one] | > 10000
21 | CN(C1=N/C(=C\c2ccc3c(c2)OCO3)C(=O)N1)c1ccc2ncsc2c1 [Example 70, (Z)-5-(benzo[d][1,3]dioxol-5-ylmethylene)-2-(benzo[d]thiazol-6-yl(methyl)amino)-3,5-dihydro-4H-imidazol-4-one] | > 10000
22 | O=C1NC(Nc2ccc3nccnc3c2)=N/C1=C\c1ccc2ncsc2c1 [Example 82, (Z)-5-(benzo[d]thiazol-6-ylmethylene)-2-(quinoxalin-6-ylamino)-3,5-dihydro-4H-imidazol-4-one] | > 10000
23 | CN(C1=N/C(=C\c2ccc3ncsc3c2)C(=O)N1)c1ccc2ncsc2c1 [Example 83, (Z)-2-(benzo[d]thiazol-6-yl(methyl)amino)-5-(benzo[d]thiazol-6-ylmethylene)-3,5-dihydro-4H-imidazol-4-one] | 100 to 1000
24 | CN(C1=N/C(=C\c2ccc3c(c2)OCCO3)C(=O)N1)c1ccc2ncsc2c1 [Example 84, (Z)-2-(benzo[d]thiazol-6-yl(methyl)amino)-5-((2,3-dihydrobenzo[b][1,4]dioxin-6-yl)methylene)-3,5-dihydro-4H-imidazol-4-one] | > 10000
25 | NC1=N/C(=C\c2ccc3ncsc3c2)C(=O)N1 [Example 103, (Z)-2-amino-5-(benzo[d]thiazol-6-ylmethylene)-3,5-dihydro-4H-imidazol-4-one] | 100 to 1000
